Read-outs that look alike come from different tables or passages of the source.
Key:
[1] = target: T1, α7 Receptor (alpha7 nAChR) (Rattus norvegicus, UniProt Q05941); assay: Displacement binding of 125I-α-bungarotoxin to rat brain membranes (α7 nAChR); settings: for α7/α4β2 Selectivity (Selectivity factor): Ki for alpha4beta2 binding divided by Ki for alpha7 binding, rat brain; for Enantiomeric Selectivity: given once per enantiomer pair, on the line of the first enantiomer, rat α7 binding
T1 construct: protein concentration of the rat brain membranes contained in the pellet; tissue Pel-Freeze Biologicals; host or cells: whole male Sprague-Dawley rat brain membranes
Excerpt: As used herein, the term “selectively binds,” “selective binding,” and cognates thereof refer to anabaseine compounds that preferentially bind one type of nicotinic acetylcholine receptor relative to another type of acetylcholine receptor (e.g., α7 nAChR versus the α4β2 nAChR). Because Ki is an inverse measure of affinity, binding selectivity of a compound for the α7 nAChR versus the α4β2 nAChR is expressed by dividing the Ki for binding to the α4β2 nAChR by the Ki for binding to the α7 nAChR. In one embodiment, a compound of the invention selectively binds α7 nAChR compared to α4β2 nAChR. The selectivity of a compound of the invention for α7 nAChR over α4β2 nAChR is at least 2, 3, 4, 5, 6, 7, 8, 9, 10, 11, 12, 13, 14, 15, or more. In another embodiment, a compound of the invention selectively binds α4β2 nAChR compared to α7 nAChR. The selectivity of a compound of the invention for α4β2 nAChR over α7 nAChR is at least 2, 3, 4, 5, 6, 7, 8, 9, 10, 11, 12, 13, 14, 15, or more. Binding to the α7 and α4β2 nAChR (including relative binding to each of these receptors) can be determined by the skilled artisan using the methods known in the art, in particular in view of the teachings provided herein. In particular, the assays used to determine selective binding are according to Marks and Collins for [^125I]alpha-bungarotoxin experiments (for alpha7 receptor binding) and a modified method by Pabreza et al. for [^3H]cytisine experiments (for α4β2), used as described in US 2009/0215705.
(§1) Whole male Sprague-Dawley rat brains (Pel-Freeze Biologicals, Rogers, Ariz.) were homogenized with a 30 ml Wheaton (location) glass homogenizing tube and pestle in binding saline (120 mM NaCl, 5 mM KCl, 2 mM CaCl2, 1 mM MgCl2, 50 mM Tris-TrisHCl buffer, pH 7.4). After the homogenate was centrifuged at 11,000 rpm (convert to ×G) for a 10 min, the resulting pellet was resuspended in fresh binding saline and homogenized and centrifuged again. A protein assay (BCA, Pierce, Rockford, Ill.) was then performed to obtain the protein concentration of the rat brain membranes contained in the pellet, which was stored at −85° C. before use.
Radioligands used in the displacement binding assays were obtained from Perkin Elmer Life and Analytical Sciences (Boston, Mass.). ^3H-Cytisine was used to selectively bind to alpha4beta2 nAChRs and ^125I-α-bungarotoxin (α-Btx) for alpha? nAChRs. ^3H-Cytisine (34 Ci/mmol) experiments were performed according to Flores et al. (1992) with a few minor alterations, specifically that the incubation time was increased to four hours at 4° C. to assure binding equilibrium. The ^125I-α-Btx (136 Ci/mmol) experiments involved 37° C. incubation for three hours to assure equilibration. Both radioligands were generally tested at final concentrations of 1 nM. Membranes at the above mentioned concentrations were suspended in binding saline containing 2 mg/ml of bovine serum albumin (Sigma, St. Louis, Mo.) to reduce non-specific binding. For each radioligand, nonspecific binding was measured in the presence of a final concentration of 1 mM (S)-nicotine hydrogen tartrate salt (Sigma, St. Louis, Mo.). After incubation, radioligand bound to membranes in 48 tubes was rapidly collected by vacuum filtration using a Brandel cell harvester (Gaithersburg, Md.) and Whatman GF/C glass fiber filters that were pre-soaked in 0.5% polyethylenimine for 45 minutes to reduce nonspecific binding. The radiolabeled membranes were rapidly washed three times with 3 ml ice-cold binding saline to separate bound from free radioligand. Filters containing ^3H-cytisine bound membranes were placed in 20 ml scintillation tubes and suspended in 8 mls of 30% Scintisafe scintillation fluid (Fisher), then counted in a Beckman LS-6500 liquid scintillation counter (Fullerton, Calif.). Filters containing ^125I-α-Btx bound membranes were placed in 4 ml scintillation vials and counted in a Beckman 5500B gamma counter (Fullerton, Calif.). […]

[2] = target: T2, α4β2 Receptor (alpha4beta2 nAChR) (Rattus norvegicus, UniProt P09483+P12390); assay: Displacement binding of 3H-cytisine to rat brain membranes (α4β2 nAChR)
T2 construct: protein concentration of the rat brain membranes contained in the pellet; tissue Pel-Freeze Biologicals; host or cells: whole male Sprague-Dawley rat brain membranes
Protocol: as §1
Radioligands used in the displacement binding assays were obtained from Perkin Elmer Life and Analytical Sciences (Boston, Mass.). ^3H-Cytisine was used to selectively bind to alpha4beta2 nAChRs and ^125I-α-bungarotoxin (α-Btx) for alpha? nAChRs. ^3H-Cytisine (34 Ci/mmol) experiments were performed according to Flores et al. (1992) with a few minor alterations, specifically that the incubation time was increased to four hours at 4° C. to assure binding equilibrium. The ^125I-α-Btx (136 Ci/mmol) experiments involved 37° C. incubation for three hours to assure equilibration. Both radioligands were generally tested at final concentrations of 1 nM. Membranes at the above mentioned concentrations were suspended in binding saline containing 2 mg/ml of bovine serum albumin (Sigma, St. Louis, Mo.) to reduce non-specific binding. For each radioligand, nonspecific binding was measured in the presence of a final concentration of 1 mM (S)-nicotine hydrogen tartrate salt (Sigma, St. Louis, Mo.). After incubation, radioligand bound to membranes in 48 tubes was rapidly collected by vacuum filtration using a Brandel cell harvester (Gaithersburg, Md.) and Whatman GF/C glass fiber filters that were pre-soaked in 0.5% polyethylenimine for 45 minutes to reduce nonspecific binding. The radiolabeled membranes were rapidly washed three times with 3 ml ice-cold binding saline to separate bound from free radioligand. Filters containing ^3H-cytisine bound membranes were placed in 20 ml scintillation tubes and suspended in 8 mls of 30% Scintisafe scintillation fluid (Fisher), then counted in a Beckman LS-6500 liquid scintillation counter (Fullerton, Calif.). Filters containing ^125I-α-Btx bound membranes were placed in 4 ml scintillation vials and counted in a Beckman 5500B gamma counter (Fullerton, Calif.).
Displacement assay binding data were analyzed using GraphPad Prism software (San Diego, Calif.). The mean counts per minute values for each concentration of a given compound concentration were obtained from 4 replicates. The data were fitted to a sigmoidal concentration response curve from which the Hill slope (n) and IC50 (X) values were estimated: Y=Bottom+(Top−Bottom)/(1+10^(Log IC50-X)n) Here, Top=maximal specific binding of radioligand at the top of the curve and Bottom=minimum specific binding observed at high concentrations of the displacing ligand. […] Results and Discussion

[3] = rat brain membranes, 3H-cytisine 1 nM, 4° C. four hours, read-out: α4β2 Receptor Rat Ki
[4] = rat brain membranes, 125I-α-Btx 1 nM, 37° C. three hours, read-out: α7 Receptor Rat Ki

T2 sequence (P09483 31-630): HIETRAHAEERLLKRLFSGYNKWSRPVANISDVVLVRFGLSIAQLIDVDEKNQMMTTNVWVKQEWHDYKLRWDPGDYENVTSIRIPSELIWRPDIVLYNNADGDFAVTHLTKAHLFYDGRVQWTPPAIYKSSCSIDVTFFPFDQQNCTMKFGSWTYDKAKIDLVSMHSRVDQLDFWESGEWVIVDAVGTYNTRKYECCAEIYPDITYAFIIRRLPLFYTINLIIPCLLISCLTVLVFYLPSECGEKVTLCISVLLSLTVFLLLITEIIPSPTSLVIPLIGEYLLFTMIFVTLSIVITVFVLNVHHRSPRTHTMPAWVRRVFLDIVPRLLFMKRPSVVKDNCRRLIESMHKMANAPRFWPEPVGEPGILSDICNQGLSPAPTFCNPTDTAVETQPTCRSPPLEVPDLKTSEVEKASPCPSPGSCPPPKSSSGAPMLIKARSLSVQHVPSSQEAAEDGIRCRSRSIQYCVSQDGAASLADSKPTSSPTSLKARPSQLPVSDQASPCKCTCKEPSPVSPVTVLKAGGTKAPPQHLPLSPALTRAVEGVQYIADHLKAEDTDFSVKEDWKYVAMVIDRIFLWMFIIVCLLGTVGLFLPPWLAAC
T2 sequence (P12390 25-500): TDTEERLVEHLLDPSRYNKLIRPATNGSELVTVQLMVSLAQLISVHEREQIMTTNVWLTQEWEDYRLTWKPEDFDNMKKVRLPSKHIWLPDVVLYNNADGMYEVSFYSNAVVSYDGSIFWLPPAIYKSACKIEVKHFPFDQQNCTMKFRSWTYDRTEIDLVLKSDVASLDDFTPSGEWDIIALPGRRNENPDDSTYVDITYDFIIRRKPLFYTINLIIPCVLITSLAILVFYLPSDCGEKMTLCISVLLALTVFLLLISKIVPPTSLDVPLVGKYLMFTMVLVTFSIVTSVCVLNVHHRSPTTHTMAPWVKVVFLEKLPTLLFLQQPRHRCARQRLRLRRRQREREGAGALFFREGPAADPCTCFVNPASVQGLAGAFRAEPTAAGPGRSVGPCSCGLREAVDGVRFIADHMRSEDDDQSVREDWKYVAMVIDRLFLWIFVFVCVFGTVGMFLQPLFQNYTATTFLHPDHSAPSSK
T1 sequence (Q05941 23-502): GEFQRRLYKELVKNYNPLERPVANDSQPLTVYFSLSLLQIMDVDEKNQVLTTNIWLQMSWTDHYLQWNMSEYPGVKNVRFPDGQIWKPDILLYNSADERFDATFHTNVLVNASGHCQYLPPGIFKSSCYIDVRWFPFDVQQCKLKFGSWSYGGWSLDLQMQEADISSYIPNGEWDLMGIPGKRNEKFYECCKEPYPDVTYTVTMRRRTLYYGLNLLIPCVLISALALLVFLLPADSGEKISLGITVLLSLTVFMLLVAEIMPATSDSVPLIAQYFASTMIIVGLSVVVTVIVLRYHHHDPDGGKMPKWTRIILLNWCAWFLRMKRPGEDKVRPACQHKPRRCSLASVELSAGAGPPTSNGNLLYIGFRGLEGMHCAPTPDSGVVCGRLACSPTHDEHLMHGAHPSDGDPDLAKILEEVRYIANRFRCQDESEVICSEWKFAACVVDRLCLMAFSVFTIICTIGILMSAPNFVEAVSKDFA

SMILES | Ki [1] [µM] | α7/α4β2 Selectivity (Selectivity factor) [1] | Ki [2] [µM] | Ki [2, 3] [µM] | Enantiomeric Selectivity [1] | Ki [1, 4] [µM]
c1cncc(C2=NCCCC2)c1 [Compound 1, anabaseine, reference compound] | 0.29 | 0.26 | 0.076 | – | – | –
COc1ccc(/C=C2\CCCN=C2c2cccnc2)c(OC)c1 [Compound 2, 3-(2,4-dimethoxybenzylidene)-anabaseine, reference compound] | – | 1.91 | – | – | – | –
Oc1ccc(C=C2CCCN=C2c2cccnc2)cc1 [Compound 3, reference compound] | – | 1.2 | – | 0.45 | – | –
COc1ccc(C=C2C(c3cccnc3)=NCC[C@H]2C)c(OC)c1 [Compound 4, 3-(DMXB)-4(R)-methyl-anabaseine] | 0.062 | 2.5 | – | 0.153 | 2.0 | –
COc1ccc(/C=C2/C(c3cccnc3)=NCC[C@@H]2C)c(OC)c1 [Compound 5, 3-(2,4-Dimethoxybenzylidene)-4(S)-methyl-anabaseine] | 0.125 | 1.5 | – | 0.191 | – | –
COc1ccc(C=C2CC(C)CN=C2c2cccnc2)c(OC)c1 (stereo not shown) [Compound 6] | – | – | – | – | 6.8 | 0.22
COc1ccc(C=C2CC(C)CN=C2c2cccnc2)c(OC)c1 (stereo not shown) [Compound 7] | 1.5 | – | – | – | – | –
COc1ccc(/C=C2\CC[C@H](C)N=C2c2cccnc2)c(OC)c1 [Compound 8, 3-(2,4-Dimethoxybenzylidene)-6(S)-methyl-anabaseine] | 0.208 | 2.8 | – | 0.588 | 3.3 | –
COc1ccc(C=C2CC[C@@H](C)N=C2c2cccnc2)c(OC)c1 [Compound 9, 3-(DMXB)-6(R)-methyl-anabaseine] | 0.401 | 0.86 | – | 0.344 | – | –
COc1ccc(C=C2C(c3cccnc3)=NC(C)CC2C)c(OC)c1 (stereo not shown) [Compound 10] | – | 1.3 | – | 0.0498 | 11 | 0.0376
COc1ccc(/C=C2/C(c3cccnc3)=N[C@H](C)C[C@@H]2C)c(OC)c1 [Compound 11] | – | 1.5 | – | 0.61 | – | 0.409
COc1ccc(/C=C2/C(c3cccnc3)=N[C@H]3CC[C@@H]2C3)c(OC)c1 [Compound 12, (1S,5R,E)-4-(2,4-dimethoxybenzylidene)-3-(pyridin-3-yl)-2-azabicyclo[3.2.1]oct-2-ene] | 0.0164 | 13 | – | 0.219 | 270 | –
COc1ccc(/C=C2/C(c3cccnc3)=N[C@@H]3CC[C@H]2C3)c(OC)c1 [Compound 13, (1R,5S,E)-4-(2,4-dimethoxybenzylidene)-3-(pyridin-3-yl)-2-azabicyclo[3.2.1]oct-2-ene] | 4.4 | 0.079 | – | 0.347 | – | –
Oc1ccc(/C=C2/C(c3cccnc3)=N[C@H]3CC[C@@H]2C3)cc1 [Compound 14, 4-((E)-((1S,5R)-3-(pyridin-3-yl)-2-azabicyclo[3.2.1]oct-2-en-4-ylidene)methyl)phenol] | 0.0341 | 2.1 | 0.0725 | – | – | –
C[C@H]1CC/C(=C\c2ccc(N)cc2)C(c2cccnc2)=N1 [Compound 15, 3-(4-Aminobenzylidene)-6(S)-methyl-anabaseine] | 0.073 | 4.3 | – | 0.314 | – | –
Nc1ccc(/C=C2/C(c3cccnc3)=N[C@H]3CC[C@@H]2C3)cc1 [Compound 16, 3-(4-Aminobenzylidene)-4(R),6(S)-ethylene-anabaseine] | 0.00343 | 9.9 | 0.0341 | – | – | –

From patent US9150558B2, “Nicotine receptor targeted compounds and compositions” (University of Florida Research Foundation, priority 2011, dated 2015)
